Test results published in patent US20120065228A1, “COMPOSITIONS AND METHODS FOR TREATING, CONTROLLING, REDUCING, OR AMELIORATING OCULAR INFLAMMATORY WITH LOWER RISK OF INCREASED INTRAOCULAR PRESSURE” (priority 2007, published 2012).

Experiments:
[1] = test system: pain following cataract surgery; experiment: Clinical dose ranging study after cataract surgery: Grade 0 pain; format: in vivo, human
Text: (§1) There were 8 treatment groups in this study, consisting of three drug doses, vehicle and three dosing frequencies (see also Table 4-1): • Group A: 1% BOL-303242-X ophthalmic suspension, two times per day (BID) • Group B: 2% BOL-303242-X ophthalmic suspension, one time per day (QD) • Group C: 2% BOL-303242-X ophthalmic suspension, BID • Group D: 2% BOL-303242-X ophthalmic suspension, four times per day (QID) • Group E: 3% BOL-303242-X ophthalmic suspension, QD • Group F: 3% BOL-303242-X ophthalmic suspension, BID • Group G: 3% BOL-303242-X ophthalmic suspension, QID • Group H: Vehicle for BOL-303242-X (divided equally into QID, BID, and QD)
At Visit 3 (postoperative Day 1, 18 to 34 hours following surgery), subjects meeting all eligibility criteria were randomized to one of the treatment groups continuing to be studied, including vehicle, in a 1:1 ratio.
(§2) Subjects self-administered study drug, instilling 1 to 2 drops of study drug into the study eye: QID at approximately 4 hour intervals, BID at approximately 12 hour intervals, or QD once in the morning, for 14 days. The initial dose occurred in the clinic at Visit 3 and the final dose was on the day before Visit 6 (postoperative Day 15±1 day). Subjects were examined and evaluated according to the following schedule:
(§3) Visit 1 (screening), Visit 2 (cataract surgery), Visit 3 (postoperative Day 1), Visit 4 (postoperative Day 3±1 day), Visit 5 (postoperative Day 8±1 day), Visit 6 (postoperative Day 15±1 day), Visit 7 (postoperative Day 18±1 day). Subject assessments included adverse events (AEs), concomitant medications, ocular symptoms, pinholed Snellen visual acuity (VA), intraocular pressure (IOP), ocular signs (biomicroscopy), fundoscopy, and study drug drop sensation. In addition, subject diaries were collected and reviewed for accuracy and treatment compliance.
Secondary Efficacy: The secondary efficacy endpoints for this study were the proportions of subjects with Grade 0 pain at Visit 5 (postoperative Day 8) and at each visit, complete resolution of AC cells at each visit, complete resolution of AC cells and flare at each visit, complete resolution of AC flare at each visit, change from baseline to each follow-up visit in AC cells and AC flare combined and separately, ocular symptoms.

[2] = test system: intraocular pressure (IOP); experiment: Clinical dose ranging study after cataract surgery: intraocular pressure (safety); format: in vivo, human
Text: as §1, §2
Visit 1 (screening), Visit 2 (cataract surgery), Visit 3 (postoperative Day 1), Visit 4 (postoperative Day 3±1 day), Visit 5 (postoperative Day 8±1 day), Visit 6 (postoperative Day 15±1 day), Visit 7 (postoperative Day 18±1 day). […]

[3] = test system: ocular signs; experiment: Clinical dose ranging study after cataract surgery: ocular signs (biomicroscopy); format: in vivo, human
Text: as §1, §2, §3
Safety: The safety endpoints in this study were: incidence of AEs, change in IOP, ocular signs (biomicroscopy), Snellen VA, fundoscopy, study drug drop sensation assessment.

[4] = test system: myocilin mRNA; experiment: Myocilin mRNA expression in monkey TM cells (qRT-PCR); format: cell-based, rhesus monkeys (Macaca mulatta); settings: for EC50: Macaca mulatta, cultured monkey TM cells, weighted average, two dose-response studies each using two TM cell strains, read-out: EC50 ± SE, expression of myocilin mRNA
Description: For each study, up to nine TM cell strains, each derived from an individual monkey, were tested separately. Cells were thawed and seeded into 12- or 48-well clusters (Falcon, BD Biosciences; 150,000 and 30,000 cells/well, respectively) in proliferation medium. When cells were 75% to 90% confluent proliferation medium was replaced by a 5:4 mixture of HESFM and Dulbecco's MEM, respectively, supplemented with 10% FBS, with added taurine, ascorbic acid phosphate, glutathione, and antibiotic as for proliferation medium (above), and with 2.72 g/L glucose and 1.72 g/L fructose. At confluence, the medium was changed to Dulbecco's MEM, containing 10% FBS^40, ascorbic acid phosphate, antibiotic, 2.72 g/L glucose and 1.72 g/L fructose. Cells were maintained as stable, confluent monolayers in this latter medium for 4 to 7 days before experimental treatments commenced.
After quantification of purified total RNA (Quant-iT RNA Assay kit, Molecular Probes, Eugene, Oreg.), equivalent amounts of this RNA were apportioned to generate first-strand cDNAs for each treatment sample, using random primers, (Affinity Script, Stratagene, La Jolla, Calif.). Oligonucleotide myocilin primers, designed based on the cynomolgus MYOC gene, and fluorescent Taqman probe (Applied Biosystems, Foster City, Calif.) were used for PCR amplification. Equal amounts of total RNA-equivalent mass (approximate range […]) reactant cDNA were added to the PCR Master Mix (Stratagene) and myocilin primers/Taqman probe. Amplification was performed in a thermocycler (Mx3005P, Stratagene), with an initial denaturation step at 95° C. for 10 min, followed by 40 cycles of 95° C. for 15 sec and 60° C. for 1 min for extension. Every run included standard controls (i.e., either without reverse transcriptase or lacking template). Relative quantities of myocilin mRNA abundance were determined using differences in threshold cycles (“Ct”) between vehicle control and drug treatments. Each sample was analyzed in triplicate wells, and the corresponding values averaged for further quantitative analysis. Myocilin mRNA abundance, expressed in proportion to vehicle control-treated samples, was calculated using the Mx3005P software.
Data underwent Box-Cox transformations for one- or two-way analysis of variance (ANOVA), followed by the Tukey-Kramer test, using JMP software (SAS, Cary, N.C.). The specific transformations used for analyses are mentioned in the figure legends. For each set of triplicate samples from the individual monkey TM cell strains tested, Western blot densitometry values for myocilin protein detected in CM (as geometric means), and relative abundance of myocilin mRNA (as geometric means), were plotted as a function of drug concentrations. P-values less than 0.05 were considered statistically significant. […]

[5] = test system: IL-1β-stimulated cytokine expression in primary human corneal epithelial cells; experiment: IL-1β-stimulated cytokine production in primary human corneal epithelial cells (30-cytokine Luminex kit); settings: primary HCECs, 10 ng/ml IL-1β, 18 h
Description: Primary HCECs were seeded in 24-well plates. […] Each treatment was performed in triplicate. Media were collected and used for determination of cytokine content using a 30-cytokine Luminex kit. Cell viability was determined by alamarBlue assay (LP06013).
Median fluorescence intensity (MFI) was used to obtain the concentration of each cytokines in pg/ml based on the standard curve of each cytokine assayed by Luminex. The linear range of the standard curve for each cytokine was used for determination of cytokine concentration. Duplicate values for each sample were averaged. Data were expressed as mean±SD. Statistical analysis was performed using one-way ANOVA-Dunnett's test, and P<0.05 was considered statistically significant.

**Q.** For Cc1ccc2c(NCC(O)(CC(C)(C)c3cc(F)cc4c3OCC4)C(F)(F)F)cccc2n1 (stereo not drawn) [BOL-303242-X], which “Proportion of subjects with Grade 0 pain” value ([1]; 1% BID, Visit 6 (postoperative Day 15)) is on record?
**A.** The value was 61.7%.

**Q.** What about the “Proportion of subjects with Grade 0 pain” value ([1]; 1% BID, Visit 7 (postoperative Day 18)) of the same compound?
**A.** The value was 61.7%.

**Q.** What about the “Proportion of subjects with Grade 0 pain” value ([1]; 2% BID, Visit 6 (postoperative Day 15)) of the same compound?
**A.** Its value is 57.1%.

**Q.** And the “Proportion of subjects with Grade 0 pain” value ([1]; 2% BID, Visit 7 (postoperative Day 18))?
**A.** Its value is 53.6%.

**Q.** What about the “Proportion of subjects with Grade 0 pain” value ([1]; 2% QD, Visit 6 (postoperative Day 15)) of the same compound?
**A.** The value was 57.1%.

**Q.** What about the “Proportion of subjects with Grade 0 pain” value ([1]; 2% QD, Visit 7 (postoperative Day 18)) of the same compound?
**A.** Its value is 57.1%.

**Q.** What about the “Proportion of subjects with Grade 0 pain” value ([1]; 2% QID (printed 296 QID), Visit 5 (postoperative Day 8)) of the same compound?
**A.** The value was 78.396%.

**Q.** What about the “Proportion of subjects with Grade 0 pain” value ([1]; 2% QID, Visit 4 (postoperative Day 3)) of the same compound?
**A.** The value was 73.3%.

**Q.** And the “Proportion of subjects with Grade 0 pain” value ([1]; 2% QID, Visit 6 (postoperative Day 15))?
**A.** The value was 75.0%.

**Q.** What about the “Proportion of subjects with Grade 0 pain” value ([1]; 2% QID, Visit 7 (postoperative Day 18)) of the same compound?
**A.** The value was 71.7%.

**Q.** What about the “Proportion of subjects with Grade 0 pain” value ([1]; 3% BID, Visit 4 (postoperative Day 3)) of the same compound?
**A.** The value was 70.0%.

**Q.** What about the “Proportion of subjects with Grade 0 pain” value ([1]; 3% BID, Visit 5 (postoperative Day 8)) of the same compound?
**A.** The value was 75.0%.

**Q.** And the “Proportion of subjects with Grade 0 pain” value ([1]; 3% BID, Visit 6 (postoperative Day 15))?
**A.** The value was 68.3%.

**Q.** What about the “Proportion of subjects with Grade 0 pain” value ([1]; 3% QD, Visit 4 (postoperative Day 3)) of the same compound?
**A.** The value was 81.4%.

**Q.** What about the “Proportion of subjects with Grade 0 pain” value ([1]; 3% QD, Visit 5 (postoperative Day 8)) of the same compound?
**A.** The value was 71.2%.

**Q.** And the “Proportion of subjects with Grade 0 pain” value ([1]; 3% QD, Visit 6 (postoperative Day 15))?
**A.** Its value is 71.2%.

**Q.** And the “Proportion of subjects with Grade 0 pain” value ([1]; 3% QD, Visit 7 (postoperative Day 18))?
**A.** The value was 66.1%.

**Q.** And the “Proportion of subjects with Grade 0 pain” value ([1]; 3% QID, Visit 4 (postoperative Day 3))?
**A.** Its value is 66.7%.

**Q.** What about the “Proportion of subjects with Grade 0 pain” value ([1]; 3% QID, Visit 5 (postoperative Day 8)) of the same compound?
**A.** Its value is 70.0%.

**Q.** And the “Proportion of subjects with Grade 0 pain” value ([1]; 3% QID, Visit 6 (postoperative Day 15))?
**A.** The value was 70.0%.

**Q.** And the “Mean IOP values among groups” value ([2]; 2% QID and 3% QD groups, Visit 4 (postoperative Day 3) to Visit 7 (postoperative Day 18))?
**A.** The value was “lowest mean IOP values”.

**Q.** What about the “Proportion of subjects with mean IOP changes from baseline of ≧5 mmHg or ≧10 mmHg, compared to vehicle” value ([2]; any dose groups at any study visits) of the same compound?
**A.** Its value is “no statistically significant differences”.

**Q.** What about the “Proportions of subjects with increases in scores for AC cells” value ([3]; Visit 4 (2% QD) and Visit 5 (2% QID, 3% QID)) of the same compound?
**A.** The value was “statistically significantly lower proportions”.

**Q.** What about the “Proportions of subjects with increases in scores for ciliary flush” value ([3]; Visit 4 (2% QD), Visit 5 (1% BID, 2% QID, 3% BID, 3% QID), and Visit 7 (2% QID and 3% QD)) of the same compound?
**A.** Its value is “statistically significantly lower proportions”.

**Q.** What about the “Proportions of subjects with increases in scores for AC flare” value ([3]; Visit 4 (2% QID) and Visit 5 (3% BID)) of the same compound?
**A.** Its value is “statistically significantly lower proportions”.

**Q.** And the “Proportions of subjects with increases in scores for chemosis” value ([3]; Visit 4 (3% BID))?
**A.** The value was “statistically significantly lower proportions”.

**Q.** What about the “Proportions of subjects with increases in scores for palpebral conjunctival injection” value ([3]; Visit 5 (1% BI), 3% BID)) of the same compound?
**A.** Its value is “statistically significantly lower proportions”.

**Q.** And the “Proportions of subjects with increases in scores for bulbar conjunctival injection” value ([3]; Visit 5 (2% QID, 3% BID, 3% QID))?
**A.** Its value is “statistically significantly lower proportions”.

**Q.** And the “Proportions of subjects with increases in scores for anterior vitreous haze, corneal edema, corneal staining, eyelid erythema, hyphema, and posterior synechiae” value ([3]; any dose groups at any postoperative visits)?
**A.** The value was “No statistically significant differences”.

**Q.** And the “Maximal efficacy for myocilin mRNA expression, relative to DEX” value ([4]; 300 nM, monkey TM cells)?
**A.** The value was “approximately 67%”.

**Q.** And the EC50 [4]?
**A.** The EC50 was 20.8 ± 2.74 nM.

**Q.** What about the “Myocilin mRNA abundance compared with DEX” value ([4]; all doses, monkey TM cells) of the same compound?
**A.** Its value is “significantly lower mRNA abundance values”.

**Q.** And the “Effect on IL-1β-stimulated G-CSF production” value [5]?
**A.** The value was “significantly inhibited”.

**Q.** And the “Effect on IL-1β-stimulated production of 6 cytokines (IL-6, IL-7, MCP-1, TGF-α, TNF-α and VEGF)” value ([5]; comparable potency)?
**A.** The value was “significantly inhibited”.

**Q.** What about the “Effect on IL-1β-stimulated production of 3 cytokines (GM-CSF, IL-8, and RANTES)” value ([5]; less potency compared to dexamethasone) of the same compound?
**A.** Its value is “significantly inhibited”.

**Q.** For C[C@@H]1C[C@H]2[C@@H]3CCC4=CC(=O)C=C[C@]4(C)[C@@]3(F)[C@@H](O)C[C@]2(C)[C@@]1(O)C(=O)CO [dexamethasone, reference compound], which EC50 [4] is on record?
**A.** Its EC50 is 14.7 ± 1.27 nM.
